Assay results as given in ChEMBL document CHEMBL1795303, “Synthesis and evaluation of benzofuran-2-yl(phenyl)methanone derivatives as ligands for β-amyloid plaques” (Bioorg Med Chem, 2011).
Calls of active or inactive are those of the source. The rule behind the calls is not given here.

Legend:
[1] = Displacement of [125I]-IMPY from amyloid beta (1 to 42) after 2 hrs by gamma counting
Mus musculus [2] = organism: Mus musculus; test: Binding affinity to beta-amyloid in APP/PS1 transgenic C57 mouse brain at 5 uCi/[…] after 1 hr by autoradiography; assay type: tissue-based; details: tested as the 125I-labelled form
Brain [3] = test: Ratio of drug level in brain after 2 mins to drug level in brain after 30 mins ddY mouse at 0.9 uCi, iv; assay type: ADME, organism-based; details: in vivo
Blood [4] = test: Biodistribution in ddY mouse blood at 0.9 uCi, iv after 15 mins by gamma counting; assay type: ADME, organism-based; details: in vivo, 0.25 h
Kidney [5] = test: Biodistribution in ddY mouse kidney at 0.9 uCi, iv after 60 mins by gamma counting; assay type: ADME, organism-based; details: in vivo, 1 h
Brain [6] = test: Biodistribution in ddY mouse brain at 0.9 uCi, iv after 30 mins by gamma counting; assay type: ADME, organism-based; details: in vivo, 0.5 h
Mus musculus [7] = test: Biodistribution in ddY mouse thyroid assessed per organ at 0.9 uCi, iv after 60 mins by gamma counting; assay type: ADME, organism-based, Thyroid gland; details: in vivo, 1 h
Brain [8] = test: Biodistribution in ddY mouse brain at 0.9 uCi, iv after 60 mins by gamma counting; assay type: ADME, organism-based; details: in vivo, 1 h
Kidney [9] = test: Biodistribution in ddY mouse kidney at 0.9 uCi, iv after 30 mins by gamma counting; assay type: ADME, organism-based; details: in vivo, 0.5 h
Heart [10] = test: Biodistribution in ddY mouse heart at 0.9 uCi, iv after 2 mins by gamma counting; assay type: ADME, organism-based; details: in vivo
Intestine [11] = test: Biodistribution in ddY mouse intestine at 0.9 uCi, iv after 60 mins by gamma counting; assay type: ADME, organism-based; details: in vivo, 1 h
Brain [12] = test: Biodistribution in ddY mouse brain at 0.9 uCi, iv after 2 mins by gamma counting; assay type: ADME, organism-based; details: in vivo
Spleen [13] = test: Biodistribution in ddY mouse spleen at 0.9 uCi, iv after 2 mins by gamma counting; assay type: ADME, organism-based; details: in vivo
Intestine [14] = test: Biodistribution in ddY mouse intestine at 0.9 uCi, iv after 120 mins by gamma counting; assay type: ADME, organism-based; details: in vivo, 2 h
Lung [15] = test: Biodistribution in ddY mouse lung at 0.9 uCi, iv after 15 mins by gamma counting; assay type: ADME, organism-based; details: in vivo, 0.25 h
Intestine [16] = test: Biodistribution in ddY mouse intestine at 0.9 uCi, iv after 30 mins by gamma counting; assay type: ADME, organism-based; details: in vivo, 0.5 h
Intestine [17] = test: Biodistribution in ddY mouse intestine at 0.9 uCi, iv after 2 mins by gamma counting; assay type: ADME, organism-based; details: in vivo
Lung [18] = test: Biodistribution in ddY mouse lung at 0.9 uCi, iv after 30 mins by gamma counting; assay type: ADME, organism-based; details: in vivo, 0.5 h
Blood [19] = test: Biodistribution in ddY mouse blood at 0.9 uCi, iv after 30 mins by gamma counting; assay type: ADME, organism-based; details: in vivo, 0.5 h
Mus musculus [20] = test: Biodistribution in ddY mouse thyroid assessed per organ at 0.9 uCi, iv after 30 mins by gamma counting; assay type: ADME, organism-based, Thyroid gland; details: in vivo, 0.5 h
Blood [21] = test: Biodistribution in ddY mouse blood at 0.9 uCi, iv after 2 mins by gamma counting; assay type: ADME, organism-based; details: in vivo
Heart [22] = test: Biodistribution in ddY mouse heart at 0.9 uCi, iv after 60 mins by gamma counting; assay type: ADME, organism-based; details: in vivo, 1 h
Brain [23] = test: Biodistribution in ddY mouse brain at 0.9 uCi, iv after 120 mins by gamma counting; assay type: ADME, organism-based; details: in vivo, 2 h
Spleen [24] = test: Biodistribution in ddY mouse spleen at 0.9 uCi, iv after 30 mins by gamma counting; assay type: ADME, organism-based; details: in vivo, 0.5 h
Spleen [25] = test: Biodistribution in ddY mouse spleen at 0.9 uCi, iv after 120 mins by gamma counting; assay type: ADME, organism-based; details: in vivo, 2 h
Liver [26] = test: Biodistribution in ddY mouse liver at 0.9 uCi, iv after 30 mins by gamma counting; assay type: ADME, organism-based; details: in vivo, 0.5 h
Heart [27] = test: Biodistribution in ddY mouse heart at 0.9 uCi, iv after 120 mins by gamma counting; assay type: ADME, organism-based; details: in vivo, 2 h
Liver [28] = test: Biodistribution in ddY mouse liver at 0.9 uCi, iv after 15 mins by gamma counting; assay type: ADME, organism-based; details: in vivo, 0.25 h
Blood [29] = test: Biodistribution in ddY mouse blood at 0.9 uCi, iv after 60 mins by gamma counting; assay type: ADME, organism-based; details: in vivo, 1 h
Stomach [30] = test: Biodistribution in ddY mouse stomach assessed per organ at 0.9 uCi, iv after 30 mins by gamma counting; assay type: ADME, organism-based; details: in vivo, 0.5 h
Heart [31] = test: Biodistribution in ddY mouse heart at 0.9 uCi, iv after 15 mins by gamma counting; assay type: ADME, organism-based; details: in vivo, 0.25 h
Stomach [32] = test: Biodistribution in ddY mouse stomach assessed per organ at 0.9 uCi, iv after 2 mins by gamma counting; assay type: ADME, organism-based; details: in vivo
Liver [33] = test: Biodistribution in ddY mouse liver at 0.9 uCi, iv after 120 mins by gamma counting; assay type: ADME, organism-based; details: in vivo, 2 h
Mus musculus [34] = test: Biodistribution in ddY mouse thyroid assessed per organ at 0.9 uCi, iv after 15 mins by gamma counting; assay type: ADME, organism-based, Thyroid gland; details: in vivo, 0.25 h
Heart [35] = test: Biodistribution in ddY mouse heart at 0.9 uCi, iv after 30 mins by gamma counting; assay type: ADME, organism-based; details: in vivo, 0.5 h
Lung [36] = test: Biodistribution in ddY mouse lung at 0.9 uCi, iv after 2 mins by gamma counting; assay type: ADME, organism-based; details: in vivo
Spleen [37] = test: Biodistribution in ddY mouse spleen at 0.9 uCi, iv after 60 mins by gamma counting; assay type: ADME, organism-based; details: in vivo, 1 h
Spleen [38] = test: Biodistribution in ddY mouse spleen at 0.9 uCi, iv after 15 mins by gamma counting; assay type: ADME, organism-based; details: in vivo, 0.25 h
Lung [39] = test: Biodistribution in ddY mouse lung at 0.9 uCi, iv after 120 mins by gamma counting; assay type: ADME, organism-based; details: in vivo, 2 h
Brain [40] = test: Biodistribution in ddY mouse brain at 0.9 uCi, iv after 15 mins by gamma counting; assay type: ADME, organism-based; details: in vivo, 0.25 h
[41] = Lipophilicity, log D of the compound; assay type: physicochemical; details: octanol/water
Kidney [42] = test: Biodistribution in ddY mouse kidney at 0.9 uCi, iv after 15 mins by gamma counting; assay type: ADME, organism-based; details: in vivo, 0.25 h
Kidney [43] = test: Biodistribution in ddY mouse kidney at 0.9 uCi, iv after 2 mins by gamma counting; assay type: ADME, organism-based; details: in vivo
Intestine [44] = test: Biodistribution in ddY mouse intestine at 0.9 uCi, iv after 15 mins by gamma counting; assay type: ADME, organism-based; details: in vivo, 0.25 h
Stomach [45] = test: Biodistribution in ddY mouse stomach assessed per organ at 0.9 uCi, iv after 120 mins by gamma counting; assay type: ADME, organism-based; details: in vivo, 2 h
Stomach [46] = test: Biodistribution in ddY mouse stomach assessed per organ at 0.9 uCi, iv after 15 mins by gamma counting; assay type: ADME, organism-based; details: in vivo, 0.25 h
Mus musculus [47] = test: Biodistribution in ddY mouse thyroid assessed per organ at 0.9 uCi, iv after 120 mins by gamma counting; assay type: ADME, organism-based, Thyroid gland; details: in vivo, 2 h
Liver [48] = test: Biodistribution in ddY mouse liver at 0.9 uCi, iv after 2 mins by gamma counting; assay type: ADME, organism-based; details: in vivo
Liver [49] = test: Biodistribution in ddY mouse liver at 0.9 uCi, iv after 60 mins by gamma counting; assay type: ADME, organism-based; details: in vivo, 1 h
Blood [50] = test: Biodistribution in ddY mouse blood at 0.9 uCi, iv after 120 mins by gamma counting; assay type: ADME, organism-based; details: in vivo, 2 h
Mus musculus [51] = test: Biodistribution in ddY mouse thyroid assessed per organ at 0.9 uCi, iv after 2 mins by gamma counting; assay type: ADME, organism-based, Thyroid gland; details: in vivo
Stomach [52] = test: Biodistribution in ddY mouse stomach assessed per organ at 0.9 uCi, iv after 60 mins by gamma counting; assay type: ADME, organism-based; details: in vivo, 1 h
Lung [53] = test: Biodistribution in ddY mouse lung at 0.9 uCi, iv after 60 mins by gamma counting; assay type: ADME, organism-based; details: in vivo, 1 h
Kidney [54] = test: Biodistribution in ddY mouse kidney at 0.9 uCi, iv after 120 mins by gamma counting; assay type: ADME, organism-based; details: in vivo, 2 h

O=C(c1ccc([N+](=O)[O-])cc1)c1cc2cc(I)ccc2o1
Ki [1]: > 1000 nM

O=C(c1ccc([N+](=O)[O-])cc1)c1cc2cc(Br)ccc2o1
Ki [1]: > 1000 nM

Nc1ccc(C(=O)c2cc3cc(Br)ccc3o2)cc1
Ki [1]: 157 nM

Nc1ccc(C(=O)c2cc3cc(I)ccc3o2)cc1
Ki [1]: 133 nM

CNc1ccc(C(=O)c2cc3cc(Br)ccc3o2)cc1
Ki [1]: 44.9 nM

CN(C)c1ccc(C(=O)c2cc3cc(Br)ccc3o2)cc1
Ki [1]: 8.8 nM

CN(C)c1ccc(C(=O)c2cc3cc(I)ccc3o2)cc1
Ki [1]: 6.6 nM
Activity (Mus musculus [2]): Active

CN(C)c1ccc(C(=O)c2cc3cc([125I])ccc3o2)cc1
Ratio (Brain [3]): 2.34
Drug uptake (Blood [4]): 1.16 % ID/g
Drug uptake (Kidney [5]): 1.9 % ID/g
Drug uptake (Brain [6]): 1.51 % ID/g
Drug uptake (Mus musculus [7]): 0.46 %ID
Drug uptake (Brain [8]): 0.87 % ID/g
Drug uptake (Kidney [9]): 4.28 % ID/g
Drug uptake (Heart [10]): 7.01 % ID/g
Drug uptake (Intestine [11]): 20.88 % ID/g
Drug uptake (Brain [12]): 3.53 % ID/g
Drug uptake (Spleen [13]): 2.75 % ID/g
Drug uptake (Intestine [14]): 25.19 % ID/g
Drug uptake (Lung [15]): 2.2 % ID/g
Drug uptake (Intestine [16]): 21.81 % ID/g
Drug uptake (Intestine [17]): 3.14 % ID/g
Drug uptake (Lung [18]): 1.61 % ID/g
Drug uptake (Blood [19]): 1.07 % ID/g
Drug uptake (Mus musculus [20]): 0.18 %ID
Drug uptake (Blood [21]): 2.56 % ID/g
Drug uptake (Heart [22]): 0.74 % ID/g
Drug uptake (Brain [23]): 0.41 % ID/g
Drug uptake (Spleen [24]): 0.94 % ID/g
Drug uptake (Spleen [25]): 0.43 % ID/g
Drug uptake (Liver [26]): 6.7 % ID/g
Drug uptake (Heart [27]): 0.49 % ID/g
Drug uptake (Liver [28]): 11 % ID/g
Drug uptake (Blood [29]): 0.82 % ID/g
Drug uptake (Stomach [30]): 2.6 %ID
Drug uptake (Heart [31]): 1.45 % ID/g
Drug uptake (Stomach [32]): 0.95 %ID
Drug uptake (Liver [33]): 3.59 % ID/g
Drug uptake (Mus musculus [34]): 0.05 %ID
Drug uptake (Heart [35]): 1.15 % ID/g
Drug uptake (Lung [36]): 7.34 % ID/g
Drug uptake (Spleen [37]): 0.66 % ID/g
Drug uptake (Spleen [38]): 1.59 % ID/g
Drug uptake (Lung [39]): 0.79 % ID/g
Drug uptake (Brain [40]): 2.38 % ID/g
logD [41]: 4.4
Drug uptake (Kidney [42]): 3.84 % ID/g
Drug uptake (Kidney [43]): 10.26 % ID/g
Drug uptake (Intestine [44]): 11.77 % ID/g
Drug uptake (Stomach [45]): 3.76 %ID
Drug uptake (Stomach [46]): 1.54 %ID
Drug uptake (Mus musculus [47]): 0.8 %ID
Drug uptake (Liver [48]): 16.19 % ID/g
Drug uptake (Liver [49]): 5.09 % ID/g
Drug uptake (Blood [50]): 0.63 % ID/g
Drug uptake (Mus musculus [51]): 0.02 %ID
Drug uptake (Stomach [52]): 3.1 %ID
Drug uptake (Lung [53]): 0.94 % ID/g
Drug uptake (Kidney [54]): 1.64 % ID/g

CNc1ccc(C(=O)c2cc3cc(I)ccc3o2)cc1
Ki [1]: 34.5 nM
Activity (Mus musculus [2]): Active
